In publication PMC9312188, “Antioxidant Activity Evaluation and Assessment of the Binding Affinity to HSA of a New Catechol Hydrazinyl-Thiazole Derivative” (Antioxidants, 2022):

Target: T1, human serum albumin (HSA) (Homo sapiens, UniProt P02768)
T1 construct: gene ALB; commercial HSA from Sigma-Aldrich, full mature protein, untagged, monomeric
Assay: isothermal titration calorimetry, independent binding model
Conditions: read-out: Ka (converted)

T1 sequence (P02768 25-609): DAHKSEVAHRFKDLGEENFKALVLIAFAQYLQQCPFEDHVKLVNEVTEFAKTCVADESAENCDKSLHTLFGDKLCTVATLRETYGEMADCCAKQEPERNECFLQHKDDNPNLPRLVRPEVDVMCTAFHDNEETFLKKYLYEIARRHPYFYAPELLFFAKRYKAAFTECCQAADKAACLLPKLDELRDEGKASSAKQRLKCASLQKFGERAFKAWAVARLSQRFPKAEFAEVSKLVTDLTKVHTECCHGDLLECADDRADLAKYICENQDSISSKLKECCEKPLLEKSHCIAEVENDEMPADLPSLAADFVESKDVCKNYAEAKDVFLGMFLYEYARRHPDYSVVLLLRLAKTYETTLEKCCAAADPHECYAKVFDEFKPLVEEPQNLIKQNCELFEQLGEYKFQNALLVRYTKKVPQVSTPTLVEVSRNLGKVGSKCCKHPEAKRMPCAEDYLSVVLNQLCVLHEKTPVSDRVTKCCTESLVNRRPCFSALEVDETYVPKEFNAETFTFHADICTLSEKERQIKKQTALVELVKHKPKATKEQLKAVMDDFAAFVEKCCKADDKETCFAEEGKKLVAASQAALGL

Kd: 140 µM
SMILES: Cc1csc(N/N=C/c2ccc(O)c(O)c2)n1 [compound 5, (E)-2-(3,4-dihydroxybenzylidene)-1-(4-methylthiazol-2-yl)hydrazin-1-ium chloride]
